From the Kinase Knowledgebase extract (Sharma et al. 2016)
pKi: −log10 of the molar value.

Target: CDK2 (UniProt P24941)
Assay: Enzyme Assay
Details: not given

Row | pKi | Structure (SMILES)
1 | 6.95 | C[C@H](CN(C)C)N(C)C(=O)c1ccc(Nc2nc(N)c(C(=O)c3c(F)cccc3F)s2)cc1

Same assay, conditions: concentration not given here

Row | Structure (SMILES) | inhibition
2 | Nc1nc(Nc2ccc(C(=O)NCCCCCO)cc2)sc1C(=O)c1c(F)cccc1F | -4%
3 | CC(C)N(Cc1ccccc1)c1ccc(NC(=O)c2ccc(Nc3nc(N)c(C(=O)c4c(F)cccc4F)s3)cc2)cc1 | -4%
4 | Cc1nccc(-c2cccc(NC(=O)c3ccc(Nc4nc(N)c(C(=O)c5c(F)cccc5F)s4)cc3)c2)n1 | -40%
5 | C[C@@H](NC(=O)c1ccc(Nc2nc(N)c(C(=O)c3c(F)cccc3F)s2)cc1)C1CCCCC1 | -18%
6 | C#CCCN(C)C(=O)c1ccc(Nc2nc(N)c(C(=O)c3c(F)cccc3F)s2)cc1 | 0%
7 | COC(=O)c1ccccc1NC(=O)c1ccc(Nc2nc(N)c(C(=O)c3c(F)cccc3F)s2)cc1 | -4%
8 | Nc1nc(Nc2ccc(C(=O)NCCc3ccccc3)cc2)sc1C(=O)c1c(F)cccc1F | -19%
9 | CN(C)CCCN1CCN(C(=O)c2ccc(Nc3nc(N)c(C(=O)c4c(F)cccc4F)s3)cc2)CC1 | -14%
10 | Nc1nc(Nc2ccc(C(=O)N3CCC(CO)CC3)cc2)sc1C(=O)c1c(F)cccc1F | -14%
11 | Cc1ccc(NC(=O)c2ccc(Nc3nc(N)c(C(=O)c4c(F)cccc4F)s3)cc2)c(F)c1 | -30%
12 | CC(=O)N[C@@H]1CCN(C(=O)c2ccc(Nc3nc(N)c(C(=O)c4c(F)cccc4F)s3)cc2)C1 | -7%
13 | CCOc1cccc(NC(=O)c2ccc(Nc3nc(N)c(C(=O)c4c(F)cccc4F)s3)cc2)c1 | -7%
14 | Nc1nc(Nc2ccc(C(=O)N3CCN(CCO)CC3)cc2)sc1C(=O)c1c(F)cccc1F | -43%
15 | COc1ccc(CCN(C)C(=O)c2ccc(Nc3nc(N)c(C(=O)c4c(F)cccc4F)s3)cc2)cc1OC | -3%
16 | CCOCCNC(=O)c1ccc(Nc2nc(N)c(C(=O)c3c(F)cccc3F)s2)cc1 | -4%
17 | CCCN(CCc1ccccn1)C(=O)c1ccc(Nc2nc(N)c(C(=O)c3c(F)cccc3F)s2)cc1 | -12%
18 | Nc1nc(Nc2ccc(C(=O)NCCC3OCCO3)cc2)sc1C(=O)c1c(F)cccc1F | -10%
19 | C#CCc1ccc(NC(=O)c2ccc(Nc3nc(N)c(C(=O)c4c(F)cccc4F)s3)cc2)cc1 | 1%
20 | CC(C)NC(=O)c1ccc(Nc2nc(N)c(C(=O)c3c(F)cccc3F)s2)cc1 | -10%
21 | CCC(C)CN(CCO)C(=O)c1ccc(Nc2nc(N)c(C(=O)c3c(F)cccc3F)s2)cc1 (stereo unspecified) | -11%
22 | CN(C)C(=O)CN(C)C(=O)c1ccc(Nc2nc(N)c(C(=O)c3c(F)cccc3F)s2)cc1 | -23%
23 | Cc1cc(C)cc(NC(=O)c2ccc(Nc3nc(N)c(C(=O)c4c(F)cccc4F)s3)cc2)c1 | -3%
24 | CCCN(CCC#N)C(=O)c1ccc(Nc2nc(N)c(C(=O)c3c(F)cccc3F)s2)cc1 | -12%
25 | CCOC(=O)/C=C/c1ccc(Nc2nc(N)c(C(=O)c3c(F)cccc3F)s2)cc1 | -3%

Row | Structure (SMILES) | inhibition
26 | C#CCN(C)C(=O)c1ccc(Nc2nc(N)c(C(=O)c3c(F)cccc3F)s2)cc1 | -14%
27 | N#CCCN(CC1CCCO1)C(=O)c1ccc(Nc2nc(N)c(C(=O)c3c(F)cccc3F)s2)cc1 (stereo unspecified) | -5%
28 | CC(C)CCCC(C)NC(=O)c1ccc(Nc2nc(N)c(C(=O)c3c(F)cccc3F)s2)cc1 (stereo unspecified) | 0%
29 | CCSCCNC(=O)c1ccc(Nc2nc(N)c(C(=O)c3c(F)cccc3F)s2)cc1 | -6%
30 | Nc1nc(Nc2ccc(C(=O)Nc3ccc4ncsc4c3)cc2)sc1C(=O)c1c(F)cccc1F | 13%
31 | Nc1nc(Nc2ccc(C(=O)N3CCN(c4ccncc4)CC3)cc2)sc1C(=O)c1c(F)cccc1F | -1%
32 | CC1CN(C(=O)c2ccc(Nc3nc(N)c(C(=O)c4c(F)cccc4F)s3)cc2)CC(C)O1 (stereo unspecified) | -10%
33 | CN(Cc1ccccc1)C(=O)c1ccc(Nc2nc(N)c(C(=O)c3c(F)cccc3F)s2)cc1 | -1%
34 | CC(=O)Nc1ccccc1C(=O)c1sc(Nc2ccc(C(=O)NC[C@@H]3CCCN3C)cc2)nc1N | 0%
35 | CCCN(CC1CC1)C(=O)c1ccc(Nc2nc(N)c(C(=O)c3c(F)cccc3F)s2)cc1 | -3%
36 | CCN(CC)CCN1CCN(C(=O)c2ccc(Nc3nc(N)c(C(=O)c4c(F)cccc4F)s3)cc2)CC1 | -10%
37 | NC(=O)c1cccc(NC(=O)c2ccc(Nc3nc(N)c(C(=O)c4c(F)cccc4F)s3)cc2)c1 | -1%
38 | Cc1cccc(CN(C)C(=O)c2ccc(Nc3nc(N)c(C(=O)c4c(F)cccc4F)s3)cc2)n1 | -1%
39 | Cc1cc(NC(=O)c2ccc(Nc3nc(N)c(C(=O)c4c(F)cccc4F)s3)cc2)ccc1C(C)C | -5%
40 | CCN(CC)CCCN(C)C(=O)c1ccc(Nc2nc(N)c(C(=O)c3c(F)cccc3F)s2)cc1 | -27%
41 | Nc1nc(Nc2ccc(C(=O)Nc3cccc(OC(F)(F)F)c3)cc2)sc1C(=O)c1c(F)cccc1F | -31%
42 | CCCCN(CCCC)C(=O)c1ccc(Nc2nc(N)c(C(=O)c3c(F)cccc3F)s2)cc1 | -7%
43 | CCCCN(CC#N)C(=O)c1ccc(Nc2nc(N)c(C(=O)c3c(F)cccc3F)s2)cc1 | -1%
44 | CCCCN(Cc1ccccc1)C(=O)c1ccc(Nc2nc(N)c(C(=O)c3c(F)cccc3F)s2)cc1 | -17%
45 | Nc1nc(Nc2ccc(C(=O)Nc3ccc(Cl)cc3)cc2)sc1C(=O)c1c(F)cccc1F | -10%
46 | COCCCNC(=O)c1ccc(Nc2nc(N)c(C(=O)c3c(F)cccc3F)s2)cc1 | -24%
47 | CC(C)c1cccc(NC(=O)c2ccc(Nc3nc(N)c(C(=O)c4c(F)cccc4F)s3)cc2)c1 | -12%
48 | Nc1nc(Nc2ccc(C(=O)NCCOCCO)cc2)sc1C(=O)c1c(F)cccc1F | -9%
49 | CN1CCN(C(=O)c2ccc(Nc3nc(N)c(C(=O)c4c(F)cccc4F)s3)cc2)CC1 | -9%

Second part, the compound after the results:

Row | inhibition | Structure (SMILES)
50 | -30% | CCCCC(CC)NC(=O)c1ccc(Nc2nc(N)c(C(=O)c3c(F)cccc3F)s2)cc1 (stereo unspecified)
51 | 19% | Nc1nc(Nc2ccc(CCO)cc2)sc1C(=O)c1c(F)cccc1F
52 | 0% | Nc1nc(Nc2ccc(C(=O)N(CCCCO)Cc3ccccc3)cc2)sc1C(=O)c1c(F)cccc1F
53 | -11% | CC1CC(NC(=O)c2ccc(Nc3nc(N)c(C(=O)c4c(F)cccc4F)s3)cc2)CC(C)(C)C1 (stereo unspecified)
54 | -12% | Nc1nc(Nc2ccc(C(=O)NCCCCO)cc2)sc1C(=O)c1c(F)cccc1F
55 | -11% | Nc1nc(Nc2ccc(C(=O)NCCc3ccncc3)cc2)sc1C(=O)c1c(F)cccc1F
56 | -16% | CN(C)CCCCCCNC(=O)c1ccc(Nc2nc(N)c(C(=O)c3c(F)cccc3F)s2)cc1
57 | 4% | CCCCN(CCC#N)C(=O)c1ccc(Nc2nc(N)c(C(=O)c3c(F)cccc3F)s2)cc1
58 | -33% | CC1CC(C)CN(C(=O)c2ccc(Nc3nc(N)c(C(=O)c4c(F)cccc4F)s3)cc2)C1 (stereo unspecified)
59 | 1% | CN(Cc1ccncc1)C(=O)c1ccc(Nc2nc(N)c(C(=O)c3c(F)cccc3F)s2)cc1
60 | 0% | N#CCCN(Cc1ccccc1)C(=O)c1ccc(Nc2nc(N)c(C(=O)c3c(F)cccc3F)s2)cc1
61 | 23% | Nc1nc(Nc2ccc(O)cc2)sc1C(=O)c1c(F)cccc1F
62 | -30% | CN(Cc1ccccc1Cl)C(=O)c1ccc(Nc2nc(N)c(C(=O)c3c(F)cccc3F)s2)cc1
63 | -7% | CC[C@H](C)[C@@H](CO)NC(=O)c1ccc(Nc2nc(N)c(C(=O)c3c(F)cccc3F)s2)cc1
64 | -2% | COCC(C)NC(=O)c1ccc(Nc2nc(N)c(C(=O)c3c(F)cccc3F)s2)cc1 (stereo unspecified)
65 | -10% | CCN(C(=O)c1ccc(Nc2nc(N)c(C(=O)c3c(F)cccc3F)s2)cc1)C1CCCCC1
66 | -16% | COCCN(C)C(=O)c1ccc(Nc2nc(N)c(C(=O)c3c(F)cccc3F)s2)cc1
67 | -9% | CCN(CC)CCN(C)C(=O)c1ccc(Nc2nc(N)c(C(=O)c3c(F)cccc3F)s2)cc1
68 | -4% | Nc1nc(Nc2ccc(C(=O)N3CCOCC3)cc2)sc1C(=O)c1c(F)cccc1F
69 | -15% | C=CCN(C(=O)c1ccc(Nc2nc(N)c(C(=O)c3c(F)cccc3F)s2)cc1)C1CCCCC1
70 | -1% | Nc1nc(Nc2ccc(C(=O)Nc3ccon3)cc2)sc1C(=O)c1c(F)cccc1F

Row | inhibition | Structure (SMILES)
71 | -14% | Nc1nc(Nc2ccc(C(=O)N[C@H](CO)Cc3ccccc3)cc2)sc1C(=O)c1c(F)cccc1F
72 | -2% | Nc1nc(Nc2ccc(C(=O)NCC(O)CO)cc2)sc1C(=O)c1c(F)cccc1F (stereo unspecified)
73 | -2% | Nc1nc(Nc2ccc(C(=O)NCCCO)cc2)sc1C(=O)c1c(F)cccc1F
74 | 0% | CN(CC(O)CO)C(=O)c1ccc(Nc2nc(N)c(C(=O)c3c(F)cccc3F)s2)cc1 (stereo unspecified)
75 | -1% | Cc1cc(NC(=O)c2ccc(Nc3nc(N)c(C(=O)c4c(F)cccc4F)s3)cc2)ccc1F
76 | -17% | CN(C)CCN1CCN(C(=O)c2ccc(Nc3nc(N)c(C(=O)c4c(F)cccc4F)s3)cc2)CC1
77 | -16% | CCN(CCO)C(=O)c1ccc(Nc2nc(N)c(C(=O)c3c(F)cccc3F)s2)cc1
78 | -4% | COCCN(CCOC)C(=O)c1ccc(Nc2nc(N)c(C(=O)c3c(F)cccc3F)s2)cc1
79 | -7% | COC(CN(C)C(=O)c1ccc(Nc2nc(N)c(C(=O)c3c(F)cccc3F)s2)cc1)OC
80 | -23% | CC(C)(C)C1CCC(NC(=O)c2ccc(Nc3nc(N)c(C(=O)c4c(F)cccc4F)s3)cc2)CC1 (stereo unspecified)
81 | 15% | COc1ccc(C(=O)NC(=O)c2ccc(Nc3nc(N)c(C(=O)c4c(F)cccc4F)s3)cc2)cc1N
82 | -6% | CC(CCc1ccccc1)NC(=O)c1ccc(Nc2nc(N)c(C(=O)c3c(F)cccc3F)s2)cc1 (stereo unspecified)
83 | -4% | CN(C)CCCCNC(=O)c1ccc(Nc2nc(N)c(C(=O)c3c(F)cccc3F)s2)cc1
84 | -2% | C=C(C)CN(C)C(=O)c1ccc(Nc2nc(N)c(C(=O)c3c(F)cccc3F)s2)cc1
85 | -6% | Nc1nc(Nc2ccc(C(=O)NCCc3cccc(F)c3)cc2)sc1C(=O)c1c(F)cccc1F
86 | -16% | CCCN(C(=O)c1ccc(Nc2nc(N)c(C(=O)c3c(F)cccc3F)s2)cc1)C(C)CC (stereo unspecified)
87 | -12% | CCCCN(CCCCO)C(=O)c1ccc(Nc2nc(N)c(C(=O)c3c(F)cccc3F)s2)cc1
88 | -20% | C=CCN(CC=C)C(=O)c1ccc(Nc2nc(N)c(C(=O)c3c(F)cccc3F)s2)cc1
89 | -8% | Nc1nc(Nc2ccc(C(=O)Nc3cccc(Br)c3)cc2)sc1C(=O)c1c(F)cccc1F
90 | -3% | CC(C)C(CO)NC(=O)c1ccc(Nc2nc(N)c(C(=O)c3c(F)cccc3F)s2)cc1 (stereo unspecified)
91 | 0% | Nc1nc(Nc2ccc(C(=O)NCCc3ccc(Cl)cc3)cc2)sc1C(=O)c1c(F)cccc1F
